For 89 molecules, melting point results are on record in a melting point compilation (Tetko et al.; mined from patent text by program, amines drawn as free bases though some values may be those of a salt).

In general, melting point refers to the temperature of the solid-liquid transition. The molecule `COc1ccc2cc3c(c(-c4ccc5c(c4)OCO5)c2c1OC)C(=O)NC3=O` yielded a melting point of 274 to 276 °C.

Regarding `Cc1ncnc2nc(N)c(-c3c(Cl)cccc3Cl)cc12`, the melting point lay in the range of 280 to 282 °C.

`Clc1ccc2c(c1)SCc1cccnc1C2=C1CCNCC1` had a melting point of 206 to 215 °C.

For `COc1ccc(N)cc1C(=O)NCc1ccc(C(F)(F)F)cc1`, the melting point lay within 115 to 117 °C. Molecule `Cc1oc(-c2ccccc2)nc1CCc1ccc(/C=C/C=C/C=C2OC(=O)NC2=O)cc1` gave a melting point of 208 to 210 °C. The same measure for `Cn1c([N+](=O)[O-])cnc1-c1nnc2cccnn12`: 235 to 237 °C; for `O=C(Nc1cc(Cc2n[nH]c(=O)c3ccccc23)ccc1N1CCOCC1)c1cccc(CCl)c1`: 117 to 122 °C; for `CN(C)C(=S)SC(C[N+](=O)[O-])c1ccccc1Cl` (centres undefined): 102 to 104 °C. `NC(=O)NC(=O)NCc1ccc(CNC(=O)[C@@H](CCCNC(N)=N[N+](=O)[O-])NC(=O)C(c2ccccc2)c2ccccc2)cc1`: the melting point was in the range of 214 to 218 °C.

The molecule `CCC(CC)Nc1cc(C)nc(Oc2c(C)cc(C)cc2C)c1NC(C)=O` registered a melting point of 154 to 156 °C. On to `O=c1nc(C2CC2)c2cc(-c3cccc(Cl)c3)ccc2[nH]1`, for which the melting point lay in the range of 189 to 190 °C.

Take `COc1ccc(CCNc2nc(Cl)nc(N3CCc4cc(OC)c(OC)cc4C3)n2)cc1OC`: the melting point was in the range of 152 to 153 °C.

`Nc1nc(O)c2ccnc-2[nH]1`: the melting point is > 300 °C.

For the molecule `COC(=O)Cc1ccc(OCCNC(=O)C2Cc3ccccc3N2S(=O)(=O)c2ccc(-c3cc(C)ccc3OC)cc2)cc1` (centres undefined), the melting point is 57 to 60 °C.

`NC(=O)c1cn(CCOC(=O)Oc2ccccc2)nc1[N+](=O)[O-]` yielded a melting point of 108 to 110 °C. Molecule `CSc1ccc2c(c1)C(=O)Cc1cc(C)ccc1O2` returned a melting point of 102 to 103 °C. In the case of `CCOC(=O)c1nnc(C(=O)OCC)c2c1[nH]c1ccccc12` it was 151 to 152 °C; in that of `OCCn1cc(Br)c(Br)n1`, 64 to 66 °C. The same measure for `CCCCCC(=O)c1cnc2c(OC)cccc2c1Nc1ccccc1C`: 94 to 96 °C. For the molecule `CCCCOC(=O)c1cc(Cl)ccc1N`, the melting point is 37 to 39 °C.

`CCN(CC)CCNC(=O)c1cc(Cl)c(N)cc1OCCO` returned a melting point of 144 to 146 °C.

As to `O=c1[nH]c2c([nH]c1=O)C1=C(CCC(n3cccc3)=C1)CC2`, the melting point was > 250 °C. `COc1ccc(F)cc1N1CCN([C@H]2CC[C@@H](c3c[nH]c4ccc(F)cc43)CC2)CC1`: the melting point was in the range of 152 to 153 °C. As to `Cn1ccnc1Sc1ccc(Nc2c(C#N)cnc3cc(N4CCC(N5CCCC5)CC4)c(N)cc23)cc1Cl`, the melting point lay in the range of 265 to 267 °C. `COC(=O)Cc1ccc(C#N)cc1C` showed a melting point of 52 to 54 °C. In turn, `O=C(O)c1ccc(NCc2cccc(Cl)c2)cn1` yielded a melting point of 170 to 174 °C. The same measure for `COCc1c(C(=O)OC(C)C)ncc2[nH]c3cccc(Oc4ccc(Cl)cc4)c3c12`: 119 to 120 °C; for `CC1(C)CNC(=O)N1CC#CCN1CCCC1`: 50 °C; for `C[C@H](Nc1cc(Cl)ccc1[N+](=O)[O-])C(=O)O`: 167 to 169 °C. In the case of `CS(=O)(=O)c1ccc(C(=O)O)c(Cl)c1CO` it was 240 to 245 °C; in that of `CCC(CC)NC(=O)C(C)(C)COc1cccc2nc(C)c(C(=O)O)c(N)c12`, 172 to 174 °C; in that of `CC(=O)c1cccc2cc3ccccc3cc12`, 106 °C.

`CCCCNN1C2=C(C=C(C)C1C(=O)OCC)CCC(=O)N2` (centres undefined) registered a melting point of 186 to 188 °C.

The molecule `O=C(O)c1cc2ccccc2c(-c2cccc(I)c2)n1` had a melting point of 145 to 146 °C. As for `CC(C)(C)OC(=O)n1ncc2ccc(NC(=O)c3ccccc3O)cc21`, the melting point is 155 to 156 °C. `CC(C)CCNC(Nc1cc(C(F)(F)F)cc(C(F)(F)F)c1)=C(C#N)C#N` returned a melting point of 158 to 159 °C. `O=C1Nc2ccc(NCCCc3ccccc3)cc2C12OCCO2` displayed a melting point of 106 to 108 °C. Consider `CN1CS(=O)c2cccc(F)c21` (centres undefined), for which the melting point is 122 to 124 °C. In the case of `CN(C)c1ccc(CNC(=O)[C@@H](Cc2ccccc2)NC(=O)CCC(=O)O)cc1` it was 194 to 196 °C; in that of `COC(=O)N1c2ccccc2Sc2nccnc21`, 137 to 138 °C; in that of `COc1cccc(CCN2C(=O)c3ccccc3C2(O)c2cccnc2)c1` (centres undefined), 97 °C.

Consider `Cc1cc(C2=CCN(CCCC(O)c3ccccc3)CC2)on1` (centres undefined), for which the melting point lay within 108 to 109 °C. `COc1ccc(C(=O)c2ccccc2)cc1OC1CCCC1` displayed a melting point of 73.5 to 75 °C. In the case of `COC1C=C(C)C(=O)CC(C)(C)C1OC(=O)c1ccc([N+](=O)[O-])cc1[N+](=O)[O-]` (centres undefined), the melting point lay in the range of 148 to 149 °C. Turning to `CCCCc1nc(I)c(C=O)[nH]1`, the melting point lay in the range of 80 to 85 °C. With `CCOC(=O)c1cn(NCC=O)c2nc(C)ccc2c1=O`, the melting point was 210 to 212 °C. The same measure for `O=C1CCC(N2C(=O)c3ccc(CNC(=O)c4ccc(SC(F)(F)F)cc4)cc3C2=O)C(=O)N1` (centres undefined): 171 to 173 °C; for `Cc1cc(CNC(=O)c2cc(-c3ccc(C(C)(C)C)cc3)[nH]n2)ccc1OC(C)(C)C(=O)O`: 100 °C; for `COC(=O)c1c(OCc2ccccc2)ccc2c1CCCC2=NO`: 135 to 137 °C. `Cc1ccc2c(c1)c(O)c(C(=O)NC1CCCCC1)c(=O)n2Cc1ccccc1` yielded a melting point of 87 °C. Take `CCNc1cc(O)c(C)cc1Cl`: the melting point turned out to be 205 °C. The molecule `CCOC(=O)c1[nH]c2cc(F)ccc2c1NCCC(=O)c1ccccc1` had a melting point of 265 to 270 °C.

Consider `CCOc1ccnc2[nH]ccc12`, for which the melting point lay in the range of 176 to 178 °C.

In turn, `C=CCn1ncc2cc3ncc(-c4ccc(OC)c(F)c4)nc3cc21` had a melting point of 121 to 124 °C. In turn, `CCOC(=O)C1(C(=O)OCC)CCC2(CC1)c1ccc(O)cc1CCN2C(=O)OCc1ccccc1` returned a melting point of 123 to 124 °C.

`CC(C)c1ccc(-c2ccc(-c3cccc(C(=O)O)c3)o2)cc1` displayed a melting point of 172 to 176 °C. With `CCc1cc(-c2ccccc2OC)n2nc(Nc3ccc(N4CCN(C)CC4)cc3)ncc12`, the melting point lay within 154 to 156 °C. `Cc1nn(-c2ccccn2)c2ncc(C(=O)O)c(O)c12` had a melting point of 248 to 251 °C.

`CCOc1nc2ccccc2nc1NC(=O)N1CCN(c2cccc(C)c2C)CC1` gave a melting point of 108 to 110 °C. In turn, `CC(C)(C)OC(=O)N1CCN(c2ccc3oc(C(N)=O)cc3c2)CC1` registered a melting point of 198 to 200 °C.

As to `COC(=O)c1ccc(C(=O)NS(=O)(=O)c2ccc(C(=O)NCCCc3ccccc3)cc2)cn1`, the melting point was 240 to 242 °C.

Consider `Nc1ccc(-c2ccc(-c3nc(N)nc(N)n3)cc2)cc1`, for which the melting point was > 250 °C. In the case of `O=C(NN1CCCCCC1)c1nc(-c2ccc(Cl)cc2Cl)c(-c2ccc(Cl)cc2)s1` it was 185 to 186 °C; in that of `CCOc1cc(Cc2cnc(N)nc2N)cc(OCC)c1-c1ccc(CNCC(F)(F)F)cc1`, 146 to 149 °C. In turn, `Cc1c(Cc2cccc(C(F)(F)F)c2)oc2c(-c3cccc(C(=O)NCCS(C)(=O)=O)c3)cccc12` gave a melting point of 162 to 163 °C. `CCOC(=O)C(=CNc1nnn[nH]1)C(=O)c1cc(F)c(Cl)nc1Cl`: the melting point lay in the range of 150 to 152 °C.

On to `CON=C(C1=C(O)C(=O)N(c2ncc(S(=O)(=O)c3ccc([N+](=O)[O-])cc3)s2)C1c1ccc(C(C)C)cc1)c1ccc(C)cc1` (centres undefined), for which the melting point came out at 156 °C.

The molecule `NC(=O)NCCSCC(=O)O` came in with a melting point of 135 °C. For the molecule `CCOC(=O)c1cccc(-n2cccc2)c1`, the melting point lay within 62 to 64 °C. The molecule `O=C(O)CON=Cc1ccc(Cl)cc1` registered a melting point of 121 to 123 °C. As for `O=C(C1CCc2nc[nH]c2C1)N1CCc2ccccc21` (centres undefined), the melting point lay in the range of 175 to 178 °C.

`Nc1c(F)c(N2CCC3(CC3N)C2)c(F)c2c1c(=O)c(C(=O)O)cn2[C@@H]1C[C@@H]1F` (some centres undefined): the melting point was in the range of 180 to 181 °C. The same measure for `CCCCC(=N)NC(=O)Nc1ccccc1[N+](=O)[O-]`: 130 to 132 °C; for `O=C(c1ccc2ccccc2c1)C(O)O`: 103 to 120 °C; for `CN1Cc2c(-c3noc(C4CC4)n3)ncn2-c2ccccc2C1=O`: 179 to 181 °C. For the molecule `Cc1oc(-c2ccccc2)nc1CCc1noc(COc2cccc(CC(=O)O)c2)n1`, the melting point lay in the range of 93 to 94 °C.

The molecule `CCCCCCOc1ccc(C=[N+]([O-])C(C)(C)C)cc1OCC` yielded a melting point of 35.5 °C. On to `CCOc1nc(CC)c(CNC(=O)C(S)CC(C)C)n1Cc1ccc(-c2ccccc2C(=O)O)cc1F` (centres undefined), for which the melting point stood at 151 °C. The same measure for `COc1ccc2c(c1)c(CN(O)C(=O)N(C)C)c(C)n2C(=O)c1ccc(Cl)cc1`: 173 to 174 °C; for `C=CCc1cc(C)c2c(c1O)C(C)(C)C(=O)N2`: 141 to 143 °C. As to `CC(=O)NC(=O)c1cncc([N+](=O)[O-])c1`, the melting point is 162 to 163 °C. In turn, `O=C1C2=C(CCCC2)C(=O)N1c1ccc(Cl)c(O)c1` registered a melting point of 236 to 238 °C. Consider `CN1C(=O)C2C3C=CC(C3)C2(c2ccc([N+](=O)[O-])cc2)C1=O` (centres undefined), for which the melting point was in the range of 163 to 167 °C. `O=S(=O)(NCC1CCN(C[C@H]2COc3ccc(Br)cc3O2)CC1)c1cccc(Cl)c1Cl` had a melting point of 93 to 95 °C.

Consider `COc1ccc2c(n1)c(CCNC(=O)c1ccco1)c1n2CCCC1`, for which the melting point fell in the range of 104 to 105 °C. Take `Brc1ccc2cc(OCc3ccccc3)c(C34CC5CC(CC(C5)C3)C4)cc2c1`: the melting point was 150 to 151 °C.

Molecule `CCCOC(=O)c1c(CN2CCCCC2)nc2cc(OC)c(OC)cc2c1-c1ccc(OC)c(OC)c1` came in with a melting point of 129 to 131 °C.

As for `CC(=O)N(C(C)=O)c1ccc(C2=NN(C(C)=O)C(C)Cc3cc4c(cc32)OCO4)cc1` (centres undefined), the melting point was in the range of 224 to 227 °C. In turn, `COc1ccc2c(c1)CCC1CCN(CO)C(=O)C(CC(C)N(C)C(C)C)=C21` (centres undefined) gave a melting point of 158 to 161 °C.
